# Patent US9090640B2, “Targeted delivery and prodrug designs for platinum-acridine anti-cancer compounds and methods thereof” (priority 2011, dated 2015)
# Legend:
# NCI-H460 = experiment: Cytotoxicity (cell proliferation) assay in NCI-H460; format: cell-based, human
# Protocol: Cytotoxicity Assay. Cytotoxicity studies were carried out according to a standard protocol (Guddneppanavar et al. 2006) using the Celltiter 96 Aqueous Non-Radioactive Cell Proliferation Assay kit (Promega, Madison, Wis.). Stock solutions of 11, 14a, and 14b were prepared in phosphate-buffered saline (PBS) and serially diluted with media prior to incubation with cancer cells. IC50 values were calculated from non-linear curve fits using a sigmoidal dose-response equation in GraphPad Prism (GraphPad Software, La Jolla, Calif.). […]
# Cell Proliferation Assay. Cell viability was assessed using the CellTiter 96 Aqueous Non-Radioactive Cell Proliferation Assay (Promega, Madison. Wis., USA) as described previously. […] The absorbance of tetrazolium dye was measured at 490) nm using a plate reader. The fraction of viable cells was calculated as a percentage of untreated control and is reported as the mean±standard deviation for 3 incubations of each compound. IC50 values were calculated from non-linear curve fits using a sigmoidal dose-response equation in GraphPad Prism (GraphPad Software, La Jolla, Calif.) and are averages of two individual experiments performed in triplicate. […]
# OVCAR-3 (ovarian) = experiment: Colorimetric cell proliferation assay in OVCAR-3; format: cell-based; conditions: 72-h incubations performed in triplicate
# [1] = system: MDA-MB-231 (triple-negative breast); experiment: Colorimetric cell proliferation assay in MDA-MB-231; format: cell-based; conditions: 72-h incubations performed in triplicate
# MCF-7 (ER + breast) = experiment: Colorimetric cell proliferation assay in MCF-7; format: cell-based; conditions: 72-h incubations performed in triplicate
# PANC-1 (pancreatic) = experiment: Colorimetric cell proliferation assay in PANC-1; format: cell-based; conditions: 72-h incubations performed in triplicate
compound,measurement,setting,value
"N.N.[Cl][Pt][Cl] [cispiatin, cis-diamminedichloroplatinum]",IC50,"NCI-H460; 72-h incubations performed in triplicate (Table II), read-out: IC50, NCI-H460 (NSCLC)",1.2 ± 0.2 µM
same,Fold less potent than the compounds of the invention in H460 cells,NCI-H460; compared with 14a and 14b,at least 20 fold
same,IC50,OVCAR-3 (ovarian),3.3 ± 0.4 µM
same,IC50,[1],60 ± 7 µM
same,IC50,MCF-7 (ER + breast),12 ± 2 µM
same,IC50,PANC-1 (pancreatic),6.6 ± 0.7 µM
